# Several values for one entry are separate records, joined by “and”; a condition that tells them apart may be missing. Identical values can stand only once. Inconclusive results and toxic doses are left out.
# System: B6C3F1 mice, B16 melanoma ip, median survival T/C
# Test: NCI In Vivo Anticancer Drug Screen. Data for tumor model B16 Melanoma (intraperitoneal) in B6C3F1 mice
# Conditions: endpoint: median survival time, schedule: Q01DX009 (ip), higher = longer survival
# How it was run: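 Values are T/C ratios: the measurement in treated animals divided by that in vehicle-treated controls, using survival or tumor size in mice carrying transplantable tumors.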
# [1] = dose: 12.5 mg/kg/injection, vehicle: saline with Tween-80
# [2] = dose: 25.0 mg/kg/injection, vehicle: saline with Tween-80
# [3] = dose: 50.0 mg/kg/injection, vehicle: saline with Tween-80
# [4] = dose: 100.0 mg/kg/injection, vehicle: saline with Tween-80
# [5] = dose: 200.0 mg/kg/injection, vehicle: saline with Tween-80
# [6] = dose: 6.25 mg/kg/injection, vehicle: saline
# [7] = dose: 12.5 mg/kg/injection, vehicle: saline
# [8] = dose: 6.25 mg/kg/injection, vehicle: Klucel (hydroxypropylcellulose) (HPC)
# [9] = dose: 50.0 mg/kg/injection, vehicle: saline
# [10] = dose: 100.0 mg/kg/injection, vehicle: saline
# [11] = dose: 400.0 mg/kg/injection, vehicle: saline with Tween-80
# [12] = dose: 25.0 mg/kg/injection, vehicle: saline
# [13] = dose: 12.5 mg/kg/injection, vehicle: Klucel (hydroxypropylcellulose) (HPC)
# [14] = dose: 25.0 mg/kg/injection, vehicle: Klucel (hydroxypropylcellulose) (HPC)
# [15] = dose: 50.0 mg/kg/injection, vehicle: Klucel (hydroxypropylcellulose) (HPC)
# [16] = dose: 100.0 mg/kg/injection, vehicle: Klucel (hydroxypropylcellulose) (HPC)
# [17] = dose: 200.0 mg/kg/injection, vehicle: Klucel (hydroxypropylcellulose) (HPC)
# [18] = dose: 6.25 mg/kg/injection, vehicle: saline with Tween-80
smiles,measurement,setting,value
NCC1CCC(C(=O)O)CC1 (stereo unspecified),T/C,[1],102 % of control
same,T/C,[2],101 % of control
same,T/C,[3],101 % of control
same,T/C,[4],101 % of control
same,T/C,[5],94 % of control
O=[N+]([O-])c1c(O)c(CNCCCO)cc(CNCCCO)c1O,T/C,[6],102 % of control
same,T/C,[7],102 % of control
CCN=C=NCCCN(C)C,T/C,[6],109 % of control
same,T/C,[7],114 % of control
COC1CC2C=C(C)/C=C/C=C/C(=O)NC(c3ccccc3)C/C=C/CCC(O)CC(=O)C2=C1O (stereo unspecified),T/C,"dose: 1.5 mg/kg/injection, vehicle: Klucel (hydroxypropylcellulose) (HPC)",108 % of control
same,T/C,"dose: 3.0 mg/kg/injection, vehicle: Klucel (hydroxypropylcellulose) (HPC)",110 % of control and 119 % of control and 123 % of control
same,T/C,"dose: 3.13 mg/kg/injection, vehicle: Klucel (hydroxypropylcellulose) (HPC)",104 % of control
same,T/C,[8],109 % of control
COc1ccc(CC(N)c2ccccc2)cc1 (stereo unspecified),T/C,[9],99 % of control
same,T/C,[10],96 % of control
CCCC(C(CC)CNC(=O)Nc1cccc2ccccc12)N(C)C(=O)Nc1cccc2ccccc12 (stereo unspecified),T/C,[3],99 % of control
same,T/C,[4],95 % of control
same,T/C,[5],102 % of control
same,T/C,[11],95 % of control
CN1C2CCC1C(Br)C(=O)C2 (stereo unspecified),T/C,[12],105 % of control
same,T/C,[9],95 % of control
same,T/C,[10],93 % of control
same,T/C,"dose: 200.0 mg/kg/injection, vehicle: saline",93 % of control
Cc1ncc([N+](=O)[O-])n1CCO,T/C,"dose: 37.5 mg/kg/injection, vehicle: Klucel (hydroxypropylcellulose) (HPC)",103 % of control
same,T/C,"dose: 75.0 mg/kg/injection, vehicle: Klucel (hydroxypropylcellulose) (HPC)",100 % of control
same,T/C,"dose: 150.0 mg/kg/injection, vehicle: Klucel (hydroxypropylcellulose) (HPC)",101 % of control
same,T/C,"dose: 300.0 mg/kg/injection, vehicle: Klucel (hydroxypropylcellulose) (HPC)",92 % of control
same,T/C,"dose: 600.0 mg/kg/injection, vehicle: Klucel (hydroxypropylcellulose) (HPC)",100 % of control
CC(=O)Nc1ccc(C(O)C2=CC(=O)c3ccccc3C2=O)cc1 (stereo unspecified),T/C,[12],102 % of control
same,T/C,[9],88 % of control
same,T/C,[10],94 % of control
O=C1c2ccccc2C(=O)c2c3c(cc(NCCNCCO)c21)N(CCO)CCN3,T/C,"dose: 25.0 mg/kg/injection, vehicle: DMSO",108 % of control
same,T/C,"dose: 50.0 mg/kg/injection, vehicle: DMSO",112 % of control
same,T/C,"dose: 100.0 mg/kg/injection, vehicle: DMSO",167 % of control
Cc1c(CNc2ccc(C(=O)NC(CC(=O)O)C(=O)O)cc2)ccc2nc(N)nc(N)c12 (stereo unspecified),T/C,"dose: 0.18 mg/kg/injection, vehicle: saline with Tween-80",90 % of control
CCCCCC[C@H]([C@H](C)O)n1cnc2c(N)ncnc21,T/C,[13],122 % of control
same,T/C,[14],88 % of control
same,T/C,[15],111 % of control and 92 % of control
same,T/C,[16],84 % of control and 92 % of control
same,T/C,[17],79 % of control
O=C1c2cccc3cc([N+](=O)[O-])cc(c23)C(=O)N1CCN1CCCC1,T/C,[18],122 % of control
same,T/C,[2],108 % of control
CCOC(=O)C(CC(C)C)NC(=O)C(N)Cc1ccc(N(CCCl)CCCl)cc1 (stereo unspecified),T/C,"dose: 1.25 mg/kg/injection, vehicle: water",113 % of control
same,T/C,"dose: 2.5 mg/kg/injection, vehicle: water",113 % of control and 102 % of control
Cc1ccc(S(=O)(=O)NC(=S)S)cc1,T/C,[1],92 % of control
same,T/C,[2],92 % of control
same,T/C,[3],95 % of control
same,T/C,[4],97 % of control
same,T/C,[5],94 % of control
N#CCc1c[nH]c2ccc([N+](=O)[O-])cc12,T/C,[3],102 % of control
same,T/C,[4],100 % of control
same,T/C,[5],108 % of control
O=S1(=O)C=C(c2ccccc2)C(c2ccccc2)=C1,T/C,"dose: 3.12 mg/kg/injection, vehicle: saline with Tween-80",92 % of control and 98 % of control
same,T/C,[18],95 % of control
same,T/C,[1],113 % of control and 94 % of control
same,T/C,[2],106 % of control
same,T/C,[3],119 % of control
S=C1CCCCN1,T/C,"dose: 25.0 mg/kg/injection, vehicle: distilled water + alcohol",107 % of control
same,T/C,"dose: 50.0 mg/kg/injection, vehicle: distilled water + alcohol",98 % of control
same,T/C,"dose: 100.0 mg/kg/injection, vehicle: distilled water + alcohol",107 % of control
same,T/C,"dose: 200.0 mg/kg/injection, vehicle: distilled water + alcohol",101 % of control
O=c1oc2c(O)c(O)cc3c(=O)oc4c(O)c(O)cc1c4c23,T/C,[8],116 % of control
same,T/C,[13],117 % of control
same,T/C,[1],123 % of control
same,T/C,[14],114 % of control and 120 % of control
same,T/C,[2],113 % of control
same,T/C,[15],114 % of control and 87 % of control
same,T/C,[3],114 % of control
same,T/C,[16],108 % of control and 88 % of control
same,T/C,[4],105 % of control
same,T/C,[17],116 % of control
same,T/C,[5],115 % of control
same,T/C,[11],119 % of control
Nc1ccc(C(=O)O)c(O)c1,T/C,"dose: 4.7 mg/kg/injection, vehicle: saline with Tween-80",90 % of control
same,T/C,[8],95 % of control
same,T/C,"dose: 9.3 mg/kg/injection, vehicle: saline with Tween-80",113 % of control and 103 % of control
same,T/C,[13],101 % of control
same,T/C,"dose: 18.7 mg/kg/injection, vehicle: saline with Tween-80",93 % of control and 102 % of control
same,T/C,"dose: 37.5 mg/kg/injection, vehicle: saline with Tween-80",109 % of control (2×) and 97 % of control
same,T/C,"dose: 75.0 mg/kg/injection, vehicle: saline with Tween-80",99 % of control and 100 % of control and 106 % of control
same,T/C,[16],92 % of control
same,T/C,"dose: 150.0 mg/kg/injection, vehicle: saline with Tween-80",93 % of control
same,T/C,[17],86 % of control
same,T/C,"dose: 300.0 mg/kg/injection, vehicle: saline with Tween-80",97 % of control
CC(=O)C[n+]1ccc(C)cc1Sc1ccccc1C,T/C,[1],97 % of control
same,T/C,[2],97 % of control
same,T/C,[3],96 % of control
same,T/C,[4],100 % of control
same,T/C,[5],101 % of control
CCC(C)(OC(C)=O)C(=O)OC1C(=O)OC2CC3C(C)=CC(O)C(O)C3(C)C3C4(O)OCC23C1C(C)C4O (stereo unspecified),T/C,"dose: 0.25 mg/kg/injection, vehicle: saline + alcohol",100 % of control
same,T/C,"dose: 0.5 mg/kg/injection, vehicle: saline + alcohol",115 % of control
same,T/C,"dose: 1.0 mg/kg/injection, vehicle: saline + alcohol",112 % of control
same,T/C,"dose: 2.0 mg/kg/injection, vehicle: saline + alcohol",109 % of control
same,T/C,"dose: 4.0 mg/kg/injection, vehicle: saline + alcohol",109 % of control
Nc1nc(N)c(N=O)c(Nc2ccc(I)cc2)n1,T/C,[3],115 % of control
same,T/C,[4],110 % of control
same,T/C,[5],98 % of control
c1ccc2c3c(c4c(c2c1)CN(C1CCCCC1)CO4)OCN(C1CCCCC1)C3,T/C,"dose: 3.12 mg/kg/injection, vehicle: other",92 % of control
same,T/C,"dose: 6.25 mg/kg/injection, vehicle: other",89 % of control
CNc1nc(NC)nc(NC)n1,T/C,[13],91 % of control
same,T/C,[14],96 % of control
same,T/C,[15],100 % of control
same,T/C,[16],106 % of control
O=C(O)C1C2CC3C(C2)C31.[Ag] (stereo unspecified),T/C,[8],90 % of control
same,T/C,[13],88 % of control
same,T/C,[14],100 % of control
C/C=C/C=C\C=C/C(O)CC(OP(=O)(O)O)C(C)(O)/C=C/C1CC=CC(=O)O1 (stereo unspecified),T/C,"dose: 0.38 mg/kg/injection, vehicle: water",107 % of control
same,T/C,"dose: 0.75 mg/kg/injection, vehicle: water",117 % of control (2×) and 123 % of control
same,T/C,"dose: 6.0 mg/kg/injection, vehicle: water",157 % of control and 184 % of control
CS(=O)(=O)OCCN(CCOS(C)(=O)=O)c1ccc(C=Nc2ccc(-c3csc(COc4ccccc4)n3)cc2)cc1,T/C,[13],114 % of control
same,T/C,[15],162 % of control
